Measurements from patent US8461107B2 (Merck Sharp & Dohme Corp., priority 2008, dated 2013).

Biological target: T1, HCV genotype 1b (BK) NS3 modified with a R155K mutation (Hepatitis C virus genotype 1b, UniProt P26663, R1181K)
T1 construct: HCV genotype 1b (BK) NS3 modified with a R155K mutation
Assay: HCV NS3 protease time-resolved fluorescence (TRF) assay, NS3 protease 1b R155K Ki activity
Format: biochemical
Settings: HCV genotype 1b (BK) NS3 with R155K mutation; TRF peptide substrate 100 nM; Ki derived from IC50
Method in brief: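 Pre-incubation of NS3/NS4A protease (genotype 1b BK, R155K) with inhibitor for 30 min, then 1 h at room temperature with 100 nM TRF peptide substrate in pH 7.5 HEPES buffer with 10 mM DTT. Reaction quenched with pH 5.5 MES; time-resolved fluorescence read (ex 340/em 615 nm). Ki derived from four-parameter IC50 fit via IC50=Ki(1+[S]/KM).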

| SMILES | Ki [pM] |
| --- | --- |
| CC[C@@H]1C[C@]1(NC(=O)[C@@H]1C[C@@H]2CN1C(=O)[C@H](C(C)(C)C)NC(=O)O[C@@H]1CCC[C@H]1C/C=C/CCn1c(cc3cc(Cl)ccc3c1=O)O2)C(=O)NS(=O)(=O)C1CC1 [(3aR,7S,10S,12R,23E,25aS)-7-tert-butyl-16-chloro-N-((1R,2R)-1-{[(cyclopropylsulfonyl)amino]carbonyl}-2-ethylcyclopropyl)-5,8,19-trioxo-1,2,3,3a,5,6,7,8,11,12,21,22,25,25a-tetradecahydro-10H,19H-9,12-methanocyclopenta[18,19][1,10,3,6,12]dioxatriazacyclononadecino[12,11-b]isoquinoline-10-carboxamide] | 100 to 500 |
| C=C[C@@H]1C[C@]1(NC(=O)[C@@H]1C[C@@H]2CN1C(=O)[C@H](C(C)(C)C)NC(=O)O[C@@H]1CCC[C@H]1C/C=C/CCn1c(cc3cc(Cl)ccc3c1=O)O2)C(=O)NS(=O)(=O)C1CC1 [(3aR,7S,10S,12R,23E,25aS)-7-tert-butyl-16-chloro-N-((1R,2S)-1-{[(cyclopropylsulfonyl)amino]carbonyl}-2-vinylcyclopropyl)-5,8,19-trioxo-1,2,3,3a,5,6,7,8,11,12,21,22,25,25a-tetradecahydro-10H,19H-9,12-methanocyclopenta[18,19][1,10,3,6,12]dioxatriazacyclononadecino[12,11-b]isoquinoline-10-carboxamide] | < 100 |
| C=C[C@@H]1C[C@]1(NC(=O)[C@@H]1C[C@@H]2CN1C(=O)[C@H](C(C)(C)C)NC(=O)O[C@@H]1CCC[C@H]1C/C=C/CCn1c(cc3ccccc3c1=O)O2)C(=O)NS(=O)(=O)C1CC1 [(3aR,7S,10S,12R,23E,25aS)-7-tert-butyl-N-((1R,2S)-1-{[(cyclopropylsulfonyl)amino]carbonyl}-2-vinylcyclopropyl)-5,8,19-trioxo-1,2,3,3a,5,6,7,8,11,12,21,22,25,25a-tetradecahydro-10H,19H-9,12-methanocyclopenta[18,19][1,10,3,6,12]dioxatriazacyclononadecino[12,11-b]isoquinoline-10-carboxamide] | < 100 |
| C=C[C@@H]1C[C@]1(NC(=O)[C@@H]1C[C@@H]2CN1C(=O)[C@H](C(C)(C)C)NC(=O)O[C@@H]1CCC[C@H]1C/C=C/CCn1c(cc3cc(OC)ccc3c1=O)O2)C(=O)NS(=O)(=O)C1CC1 [(3aR,7S,10S,12R,23E,25aS)-7-tert-butyl-N-((1R,2S)-1-{[(cyclopropylsulfonyl)amino]carbonyl}-2-vinylcyclopropyl)-16-methoxy-5,8,19-trioxo-1,2,3,3a,5,6,7,8,11,12,21,22,25,25a-tetradecahydro-10H,19H-9,12-methanocyclopenta[18,19][1,10,3,6,12]dioxatriazacyclononadecino[12,11-b]isoquinoline-10-carboxamide] | 100 to 500 |
| CC[C@@H]1C[C@]1(NC(=O)[C@@H]1C[C@@H]2CN1C(=O)[C@H](C1CCCCC1)NC(=O)O[C@@H]1CCC[C@H]1C/C=C/CCn1c(cc3cc(Cl)ccc3c1=O)O2)C(=O)NS(=O)(=O)C1CC1 [(3aR,7S,10S,12R,23E,25aS)-16-chloro-7-cyclohexyl-N-((1R,2R)-1-{[(cyclopropylsulfonyl)amino]carbonyl}-2-ethylcyclopropyl)-5,8,19-trioxo-1,2,3,3a,5,6,7,8,11,12,21,22,25,25a-tetradecahydro-10H,19H-9,12-methanocyclopenta[18,19][1,10,3,6,12]dioxatriazacyclononadecino[12,11-b]isoquinoline-10-carboxamide] | 100 to 500 |
| C=C[C@@H]1C[C@]1(NC(=O)[C@@H]1C[C@@H]2CN1C(=O)[C@H](C1CCCCC1)NC(=O)O[C@@H]1CCC[C@H]1C/C=C/CCn1c(cc3cc(Cl)ccc3c1=O)O2)C(=O)NS(=O)(=O)C1CC1 [(3aR,7S,10S,12R,23E,25aS)-16-chloro-7-cyclohexyl-N-((1R,2S)-1-{[(cyclopropylsulfonyl)amino]carbonyl}-2-vinylcyclopropyl)-5,8,19-trioxo-1,2,3,3a,5,6,7,8,11,12,21,22,25,25a-tetradecahydro-10H,19H-9,12-methanocyclopenta[18,19][1,10,3,6,12]dioxatriazacyclononadecino[12,11-b]isoquinoline-10-carboxamide] | < 100 |
